According to the C3SDB collision cross section collection:

What was measured:
[1] = instrument: TW, calibrated with phosphatidylcholines (ESI+) and phosphatidylethanolamines (ESI-), doubly charged cardiolipins calibrated with poly-DL-…
[2] = [M+H]+; instrument: TW
[3] = instrument: DT, stepped-field

Compound | collision cross section (N2) ([1]; [M-H]-) | collision cross section (N2) [2] | other results
CCCCCCCC/C=C\CCCCCCCC(=O)OC(COC(=O)CCCCCCCCCCCCCCC)COP(=O)(O)OCC(O)COP(=O)(O)OCC(COC(=O)CCCCCCCC1CC1CCCCCC)OC(=O)CCCCCCCCCCCCCCC (stereo not given) [CL(67:2)] | – | – | collision cross section (N2) ([1]; [M+2K]2+): 427.9 Å²; collision cross section (N2) ([1]; [M-2H]2-): 404.3 Å²
CCCCCC/C=C\CCCCCCCC(=O)OCC(COP(=O)(O)OCC(O)COP(=O)(O)OCC(COC(=O)CCCCCCCCCCCCCCC)OC(=O)CCCCCCC/C=C\CCCCCC)OC(=O)CCCCCCC/C=C\CCCCCC (stereo not given) [CL(64:3)] | – | – | collision cross section (N2) ([1]; [M-2H]2-): 397.47 Å²
CCCCCC/C=C\CCCCCCCC(=O)OCC(COP(=O)(O)OCC(O)COP(=O)(O)OCC(COC(=O)CCCCCCCCCCCCCCC)OC(=O)CCCCCCCC1CC1CCCCCC)OC(=O)CCCCCCC/C=C\CCCCCC (stereo not given) [CL(65:3)] | – | – | collision cross section (N2) ([1]; [M+2K]2+): 424.2 Å²; collision cross section (N2) ([1]; [M-2H]2-): 400.07 Å²
CSc1nnc(C(C)(C)C)c(=O)n1N [Metribuzin] | – | 146.95 Å² | collision cross section (N2) ([3]; [M+H]+): 150.5 Å²; collision cross section (N2) ([3]; [M+Na]+): 171.27 Å²
CCCCCC/C=C\CCCCCCCC(=O)OCC(COP(=O)(O)OCC(O)COP(=O)(O)OCC(COC(=O)CCCCCCCCCCCCCCC)OC(=O)CCCCCCC/C=C\CCCCCCCC)OC(=O)CCCCCCC/C=C\CCCCCC (stereo not given) [CL(66:3)] | – | – | collision cross section (N2) ([1]; [M+2K]2+): 425.7 Å²; collision cross section (N2) ([1]; [M-2H]2-): 401.91 Å²
CCCCCC/C=C\CCCCCCCC(=O)OC[C@H](O)COP(=O)(O)OC[C@@H](COC(=O)CCCCCCC/C=C\CCCCCC)OC(=O)CCCCCCCC1CC1CCCCCCCCCC (stereo not given in full) [AcylPG(53:3)] | 332.67 Å² | – | –
CCCCCC/C=C\CCCCCCCC(=O)OCC(COP(=O)(O)OCC(O)COP(=O)(O)OCC(COC(=O)CCCCCCC/C=C\CCCCCC)OC(=O)CCCCCCC/C=C\CCCCCCCC)OC(=O)CCCCCCC/C=C\CCCCCC (stereo not given) [CL(66:4)] | – | – | collision cross section (N2) ([1]; [M-2H]2-): 401.68 Å²
CCCCCC/C=C\CCCCCCCC(=O)OC[C@H](O)COP(=O)(O)OC[C@@H](COC(=O)CCCCCCC/C=C\CCCCCC)OC(=O)CCCCCCC/C=C/CCCCCCCCCC [AcylPG(52:3)] | 328.87 Å² | – | –
CCCCCC/C=C\CCCCCCCC(=O)OC[C@H](COP(=O)(O)OC[C@@H](O)COC(=O)CCCCCCCCCCCCCCC)OC(=O)CCCCCCCCCCCCCC [AcylPG(47:1)] | 313.72 Å² | – | collision cross section (N2) ([1]; [M+Na]+): 326 Å²
CCCCCC/C=C\CCCCCCCC(=O)OC[C@H](COP(=O)(O)OC[C@@H](O)COC(=O)CCCCCCCCCCCCCCC)OC(=O)CCCCCCC/C=C\CCCCCCCCCC [AcylPG(52:2)] | 330.34 Å² | – | –
CCCCCC/C=C\CCCCCCCC(=O)OC(COC(=O)CCCCCCC/C=C\CCCCCCCC)COP(=O)(O)OCC(O)COP(=O)(O)OCC(COC(=O)CCCCCCCCCCCCCCC)OC(=O)CCCCCCC/C=C\CCCCCCCC (stereo not given) [CL(68:3)] | – | – | collision cross section (N2) ([1]; [M-2H]2-): 407.14 Å²
CCCCCC/C=C\CCCCCCCC(=O)OC[C@H](COP(=O)(O)OCCNC(=O)CCCCCCCCCCCCCCC)OC(=O)CCCCCCCCCCCCCCCCC [AcylPE(50:1)] | 323.73 Å² | – | collision cross section (N2) ([1]; [M+Na]+): 330.1 Å²
CCc1cccc(C)c1N(C(=O)CCl)C(C)COC (stereo not given) [Metolachlor] | – | 158.23 Å² | collision cross section (N2) ([3]; [M+H]+): 161.46 Å²; collision cross section (N2) ([3]; [M+Na]+): 175.84 Å²
CO[C@@H]1[C@@H](O[C@@H]2O[C@H](C)[C@@H](O[C@H]3C[C@@](C)(O)[C@@H](OC(=O)CC(C)C)[C@H](C)O3)[C@H](N(C)C)[C@H]2O)[C@@H](CC=O)C[C@@H](C)[C@@H](O)/C=C/C=C/C[C@@H](C)OC(=O)C[C@H]1OC(C)=O [Josamycin] | – | 306.8 Å² | –
CC(COc1ccc(Oc2ccccc2)cc1)Oc1ccccn1 (stereo not given) [Pyriproxifen] | – | 182.76 Å² | –
CCCCc1c(C)nc(NCC)[nH]c1=O [Ethirimol] | – | 150.65 Å² | –
COc1ccc(/C(=C/C(=O)N2CCOCC2)c2ccc(Cl)cc2)cc1OC [Dimethomorph I] | – | 199.03 Å² | –
COC(=O)N(OC)c1ccccc1COc1ccn(-c2ccc(Cl)cc2)n1 [Pyraclostrobin] | – | 183.19 Å² | –
C=C1C[C@@]23CC[C@H]4[C@@](C)(CCC[C@@]4(C)C(=O)O[C@@H]4O[C@H](CO)[C@@H](O)[C@H](O)[C@H]4O)[C@@H]2CC[C@]1(O[C@@H]1O[C@H](CO)[C@@H](O)[C@H](O[C@@H]2O[C@H](CO)[C@@H](O)[C@H](O)[C@H]2O)[C@H]1O[C@@H]1O[C@H](CO)[C@@H](O)[C@H](O)[C@H]1O)C3 [Rebaudioside A] | – | 299.48 Å² | –
O=C(O)\C2=C\N(c1cc(c(F)cc1C2=O)N3CCNCC3)CC [Norfloxacine] | – | 171 Å² | –
CN(C)C(=O)Nc1ccc(Oc2ccc(Cl)cc2)cc1 [Chloroxuron] | – | 172.24 Å² | –
Nc1cnn(-c2ccccc2)c(=O)c1Cl [Chloridazon] | – | 141.59 Å² | –
O=C(CCCN1CCC(O)(c2ccc(Cl)cc2)CC1)c1ccc(F)cc1 [Haloperidol] | – | 193.9 Å² | –
Cc1nc(N(C)C)nc(OC(=O)N(C)C)c1C [Pirimicarb] | – | 154.68 Å² | –
C=CCOC(Cn1ccnc1)c1ccc(Cl)cc1Cl (stereo not given) [Imazalil] | – | 164.99 Å² | –
O=C(NC(=O)c1c(F)cccc1F)Nc1ccc(OC(F)(F)C(F)OC(F)(F)F)c(Cl)c1 (stereo not given) [Novaluron] | – | 196.35 Å² | –
Cc1nn(C)c(Oc2ccccc2)c1/C=N/OCc1ccc(C(=O)OC(C)(C)C)cc1 [Fenpyroximate] | – | 215.89 Å² | –
CN1CCCN=C1/C=C/c1cccs1 [Pyrantel] | – | 143 Å² | –
CC/C(=N\OC/C=C/Cl)C1=C(O)CC(C2CCOCC2)CC1=O (stereo not given) [Tepraloxydim] | – | 184.74 Å² | –

Now from value to compound, other results behind:

collision cross section (N2) ([1]; [M-H]-) | Compound | collision cross section (N2) [2] | other results
208.15 Å² | CCCCCCC1CC1CCCCCCCC(=O)OC[C@@H](O)COP(=O)([O-])OCC[NH3+] (stereo not given in full) [LPE(17:1/0:0)] | – | collision cross section (N2) ([1]; [M+H]+): 212.27 Å²; collision cross section (N2) ([1]; [M+Na]+): 219.72 Å²
257.29 Å² | CCCCCCCCCCCCCCCC(=O)OCC(COP(=O)(O)OCCN)OC(=O)CCCCCCCCCCCCCCC (stereo not given) [PE(32:0)] | – | collision cross section (N2) ([1]; [M+H]+): 272.49 Å²
202.83 Å² | CCCCCCCCCCCCCCC(=O)OC[C@@H](O)COP(=O)([O-])OCC[NH3+] [LPE(15:0/0:0)] | – | collision cross section (N2) ([1]; [M+H]+): 209.91 Å²; collision cross section (N2) ([1]; [M+Na]+): 216.13 Å²
249.02 Å² | CCCCCC/C=C\CCCCCCCC(=O)OCC(COP(=O)(O)O)OC(=O)CCCCCCCCCCCCCCC (stereo not given) [PA(32:1)] | – | –
253.68 Å² | CCCCCC/C=C\CCCCCCCC(=O)OCC(COP(=O)(O)O)OC(=O)CCCCCCC/C=C\CCCCCCCC (stereo not given) [PA(34:2)] | – | –
199.81 Å² | CCCCC1CC1CCCCCCCC(=O)O[C@H](CO)COP(=O)([O-])OCC[NH3+] (stereo not given in full) [LPE(0:0/15:1)] | – | –
203.66 Å² | CCCCCC/C=C/CCCCCCCC(=O)O[C@H](CO)COP(=O)([O-])OCC[NH3+] [LPE(0:0/16:1)] | – | collision cross section (N2) ([1]; [M+H]+): 208.94 Å²; collision cross section (N2) ([1]; [M+Na]+): 212.72 Å²
206.05 Å² | CCCCCCCCCCCCCCCC(=O)O[C@H](CO)COP(=O)([O-])OCC[NH3+] [LPE(0:0/16:0)] | – | collision cross section (N2) ([1]; [M+H]+): 216.39 Å²; collision cross section (N2) ([1]; [M+Na]+): 220.61 Å²
